Test results: patent publication US20040191833A1, “Selective activation of cellular activities mediated through a common toll-like receptor” (3M Innovative Properties Company, priority 2003, published 2004)

Key:
human TLR7 [1] = biological target: T1, human TLR7 (Homo sapiens, UniProt Q9NYK1); assay: TLR7 activation in HEK293 cells (NF-kB-luc luciferase reporter, H-TLR7/H-vector); format: cell-based; settings: final IRM concentration 10 μM, 16 hours, normalized to the DMSO without compound control
T1 construct: expressed in transfected cells; host or cells: Namalwa cells (ATCC CRL-1432), pCI-neo vector, electroporated, G418 selected, with pIFN-α1-luc reporter
T1 sequence (Q9NYK1 27-1049): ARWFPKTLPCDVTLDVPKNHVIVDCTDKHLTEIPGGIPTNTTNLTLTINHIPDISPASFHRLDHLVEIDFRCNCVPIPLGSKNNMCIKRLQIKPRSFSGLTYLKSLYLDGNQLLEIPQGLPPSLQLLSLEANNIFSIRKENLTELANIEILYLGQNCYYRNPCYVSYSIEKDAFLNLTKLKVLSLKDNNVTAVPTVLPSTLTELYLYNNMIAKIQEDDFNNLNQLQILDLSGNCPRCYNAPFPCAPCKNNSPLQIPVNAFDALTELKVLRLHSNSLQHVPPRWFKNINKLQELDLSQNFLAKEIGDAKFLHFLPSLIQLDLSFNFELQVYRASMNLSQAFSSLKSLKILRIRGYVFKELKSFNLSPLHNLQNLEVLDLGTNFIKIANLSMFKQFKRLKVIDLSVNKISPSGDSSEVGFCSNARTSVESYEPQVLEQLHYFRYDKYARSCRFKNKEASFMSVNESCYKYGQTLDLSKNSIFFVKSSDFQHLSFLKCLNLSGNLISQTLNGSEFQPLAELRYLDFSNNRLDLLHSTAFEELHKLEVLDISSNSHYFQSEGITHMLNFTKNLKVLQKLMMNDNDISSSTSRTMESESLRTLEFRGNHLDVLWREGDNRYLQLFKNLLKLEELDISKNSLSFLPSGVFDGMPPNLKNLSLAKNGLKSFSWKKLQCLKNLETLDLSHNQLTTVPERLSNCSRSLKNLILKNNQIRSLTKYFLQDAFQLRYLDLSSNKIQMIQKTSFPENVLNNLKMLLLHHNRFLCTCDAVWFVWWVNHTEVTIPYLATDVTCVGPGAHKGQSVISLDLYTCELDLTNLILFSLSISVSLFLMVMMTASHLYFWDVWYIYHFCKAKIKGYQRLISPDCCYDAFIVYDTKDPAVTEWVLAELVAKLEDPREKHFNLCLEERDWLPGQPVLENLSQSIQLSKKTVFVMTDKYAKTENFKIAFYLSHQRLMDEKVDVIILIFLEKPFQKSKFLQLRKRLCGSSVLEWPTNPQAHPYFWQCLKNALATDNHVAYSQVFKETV
Description: (§1) In one embodiment, exemplified in Example 1, selective modulation of TLR7-mediated NF-κB activation and TLR7-mediated IFN-α1 induction were assayed. NF-κB activation was measured in genetically modified HEK293 cells (H-TLR7) by detecting TLR7-mediated NF-κB-dependent transcription of a luciferase reporter. IFN-α1 induction was measured in genetically modified Namalwa cells (N-TLR7) by detecting TLR-mediated IFN-α1-induced transcription of a luciferase reporter. Results are shown in Table 2 and are expressed as the fold increase in TLR7-mediated luciferase signal—(H-TLR7/H-vector) and (N-TLR7/N-vector), respectively—normalized to a control in which the cells were treated with vehicle that contained no IRM compound. In this assay, a compound was considered to induce the TLR7-mediated cellular activity if the compound generated at least a two-fold increase in the luciferase signal compared to the vector control.
HEK293 medium was prepared from 90% Minimum Essential Medium (MEM) with 2 mM L-glutamine and Earle's Balanced Salt Solution (Invitrogen Corp., Rockville, Md.) adjusted to contain 1.5 g/L sodium bicarbonate, 0.1 mM non-essential amino acids, and 1.0 mM sodium pyruvate; 10% heat-inactivated fetal calf serum. HEK293 cells were cultured by incubating cells in HEK293 medium overnight at 37° C, 8% CO2.
Twenty-four hours before transfection, HEK293 cells were adhered to a 10 cm dish (Corning 430167, Corning Inc., Corning, N.Y.) at 37° C., 8% CO2. The cells were co-transfected with (1) pIRES (BD Biosciences Clontech, Palo Alto, Calif.) either (a) unmodified (H-vector), or (b) containing an expressible human TLR7 gene (H-TLR7), and (2) NF-kB-luc reporter (Stratagene, La Jolla, Calif.) in a 10:1 ratio with Fugene 6 transfection reagent (Roche Diagnostics Corp., Indianapolis, Ind.) following the manufacturer's instructions. The plates were incubated for 24 hours following transfection and then selected in G-418 (400 μg/mL) for two weeks. The G-418-resistant cells containing either the expressible TLR7 gene or the empty vector were expanded in HEK293 medium supplemented with G-418 for stimulation experiments.
The transfected cells were plated in white opaque 96 well plates (Costar 3917, Corning Inc., Corning, N.Y.) at a concentration of 5×10^4 cells per well in 100 μL of HEK293 media and incubated at 37° C., 8% CO2 for 4 hours. The cells were stimulated with 1 μL of IRM compounds at 1 mM in DMSO (final IRM concentration of 10 μM) or 1 μL DMSO as a control. The plates were then incubated an additional 16 hours at 37° C., 5% CO2. The luciferase signal was read using the LucLite kit (Packard Instrument Co., Meriden, Conn.). Luminescence was measured on an LMAX luminometer (Molecular Devices Corp., Sunnyvale, Calif.).
(§2) The data are expressed as fold increase in TLR7-mediated luciferase signal—(H-TLR7/H-vector) and (N-TLR7/N-vector), respectively—normalized to the DMSO without compound control.

human TLR7 [2] = biological target: T1, human TLR7; assay: TLR7 activation in Namalwa cells (IFN-α1 promoter luciferase reporter, N-TLR7/N-vector); format: cell-based; settings: final IRM concentration 10 μM, 18 hours, normalized to the DMSO without compound control
Description: as §1
Unless otherwise indicated, all incubations were performed at 37° C. with 5% CO2 at 98% humidity.
Culture medium was prepared from complete RPMI 1640 medium (BioSource International, Inc., Camarillo, Calif.). Fetal bovine serum (Atlas Biologicals, Inc., Ft. Collins, Colo.) was added to a final concentration of 7.5% (vol/vol); L-glutamine (BioSource International, Inc.) was added to 5 mM; and sodium pyruvate (BioSource International, Inc.) was added to 1 mM.
Namalwa cells were grown by incubation in culture medium overnight. Cells were harvested by centrifugation in a tabletop centrifuge (1200 RPM for 5 minutes), and then resuspended in phosphate buffered sucrose to a concentration of 1.3×10^7 cells/mL.
For each transfection, a 750 μL aliquot of the cell suspension was placed in an electroporation cuvette with 4 mm gaps. Each aliquot received transfection DNA: 10 μg of pGL3-Enhancing vector (Promega Corp., Madison, Wis.) containing the human IFN-α1 promoter cloned into the BglII site (pIFN-α1-luc), and 10 μg of pCI-neo mammalian expression vector (Promega Corp.) either (1) unmodified (N-vector) or (2) containing an expressible human TLR7 gene (N-TLR7). The cell and vector mixtures were incubated at room temperature for 5 minutes. The cells were electroporated using a BioRad Gene Pulser (BioRad Laboratories, Hercules, Calif.) set to at 500 μF capacitance and […], then incubated at room temperature for 5 minutes.
The electroporated cells were suspended in 10 mL of culture medium and incubated overnight. Dead cells and debris were removed after 24 hours using a MACS Dead Cell Removal kit (Miltenyi Biotec, Auburn, Calif.). Cells were resuspended in 10 mL of culture medium and incubated for an additional 24 hours.
Transfected cells were selected by adding G418 (Promega Corp., Madison, Wisc.) to a final concentration of 1 mg/mL and incubating the cells for seven days.
The selected transfected cells were counted and resuspended to a concentration of 1×10^6 cell per mL in culture medium. 100 μl aliquots of cells were placed in the wells of a white-walled, white-bottomed 96-well plate (Corning, Inc. Corning, N.Y.). 1.0 μL of an IRM compound from Table 1 (prepared at 1 mM in 100% DMSO) was added to some cell aliquots so that the final concentration of IRM compound was 10 μM. As a positive control, some cell aliquots were incubated with Sendai virus instead of IRM compound. As a negative control, some cell aliquots were incubated with DMSO without IRM compound. In all cases, the cells were incubated for 18 hours.
The plates were equilibrated to room temperature before 1 volume of reconstituted LucLight Plus (Packard Instruments, Meriden, Conn.) was added to each aliquot of cells. Each well of the plate was read on an LJL Analyst (LJL Biosystems, Inc., Sunnyvale, Calif.) set with a 5 minute dark adapt.
as §2

Cc1nc2c(N)nc3ccccc3c2n1CCCNC(=O)C1CCCC1 [IRM16, N-[3-(4-amino-2-methyl-1H-imidazo[4,5-c]quinolin-1-yl)propyl]cyclopentanecarboxamide]
H-TLR7: fold increase in TLR7-mediated luciferase signal (H-TLR7/H-vector), NF-κB-dependent reporter (human TLR7 [1]): 0.9 fold
N-TLR7: fold increase in TLR7-mediated luciferase signal (N-TLR7/N-vector), IFN-α1 promoter reporter (human TLR7 [2]): 2.8 fold
